Key:
Type in all cases: physicochemical
[1] = short term mixing compatibility with insulin in the same syringe; conditions: depending on type of insulin and volume ratio
Description: The formulations reported in Tables A and B are also compatible when mixed in a syringe with commercially available insulin products. […] As outlined by Brange et al, “Insulin Structure and Stability,” in Stability and Characterization of Protein and Peptide Drugs: Case Histories, 1993, Wang et al. (Ed), Plenum Press, NY, insulin has an isoelectric precipitation zone pH range of 4.5-6.5, within 1 pH unit from isoelectric point. Therefore, while not seeking to be bound by theory, if the pH of the insulin product drops from 7.2±0.2 to pH in the isoelectric precipitation range it may cause insulin to precipitate. Thus, clarity of the solution mixture was used as a criteria for preliminary compatibility studies. The insulin volumes used in this study (Table C) cover the maximum and minimum ranges typical for Type I diabetic patients. The formulation with higher buffer capacity (Table C) forms a clear solution faster than the lower buffer capacity formulation. However, at 0.01% of the peptide label strength both formulations form a clear solution with insulin within approximately one minute. In a syringe, one minute can be considered to be instantaneous mixing. The higher label strength of the peptide (0.015% or higher) results in lower dose volume and may require longer than a minute to form a clear solution. […]

[2] = pH-rate profile: stability of the peptide at pH 4.0-5.5, 45° C.; conditions: 60 mM acetate buffer, 4.1% mannitol, 0.3% m-cresol
Method: This example describes two preferred liquid formulations for pramlintide. Major degradation pathways for the peptide are […] and peptide bond hydrolysis. Therefore, the stability of the peptide was investigated in the pH region of 4.0-5.5 at 45° C. […] The following formulation was developed: […]

[3] = adsorption onto glass container in liquid form
Description: However, with regard to amylin agonists or amylins which do have such a tendency when in liquid form, a surfactant should be used in their formulation. These formulations may then be lyophilized. Surfactants frequently cause denaturation of protein, both of hydrophobic disruption and by salt bridge separation. Relatively low concentrations of surfactant may exert a potent denaturing activity, because of the strong interactions between surfactant moieties and the reactive sites on proteins. However, judicious use of this interaction can stabilize proteins against interfacial or surface denaturation. Surfactants which could further stabilize the peptide may optionally be present in the range of about 0.001 to 0.3% (w/v) of the total formulation and include polysorbate 80 (i.e., polyoxyethylene(20) sorbitan monooleate), CHAPS® (i.e., 3-[(3-cholamidopropyl) dimethylammonio] 1-propanesulfonate), Brij® (e.g., Brij 35, which is (polyoxyethylene (23) lauryl ether), poloxamer, or another non-ionic surfactant.

CC[C@H](C)[C@H](NC(=O)[C@@H]1CCCN1C(=O)CNC(=O)[C@H](Cc1ccccc1)NC(=O)[C@H](CC(N)=O)NC(=O)[C@H](CC(N)=O)NC(=O)[C@H](CO)NC(=O)[C@H](CO)NC(=O)[C@H](Cc1c[nH]cn1)NC(=O)[C@@H](NC(=O)[C@H](CC(C)C)NC(=O)[C@H](Cc1ccccc1)NC(=O)[C@H](CC(N)=O)NC(=O)[C@H](C)NC(=O)[C@H](CC(C)C)NC(=O)[C@H](CCCNC(=N)N)NC(=O)[C@H](CCC(N)=O)NC(=O)[C@@H](NC(=O)[C@H](C)NC(=O)[C@@H]1CSSC[C@H](NC(=O)[C@@H](N)CCCCN)C(=O)N[C@@H](CC(N)=O)C(=O)N[C@@H]([C@@H](C)O)C(=O)N[C@@H](C)C(=O)N[C@@H]([C@@H](C)O)C(=O)N1)[C@@H](C)O)C(C)C)C(=O)N[C@@H](CC(C)C)C(=O)N1CCC[C@H]1C(=O)N1CCC[C@H]1C(=O)N[C@H](C(=O)N[C@@H](CC(N)=O)C(=O)N[C@H](C(=O)NCC(=O)N[C@@H](CO)C(=O)N[C@@H](CC(N)=O)C(=O)N[C@H](C(=O)N[C@@H](Cc1ccc(O)cc1)C(N)=O)[C@@H](C)O)C(C)C)[C@@H](C)O [pramlintide, ^25,28,29Pro-h-amylin]
time insulin and peptide formulation can remain in the same syringe retaining activity and stability [1]: at least 24 hours | stability of the peptide over the pH range studied [2]: most stable at pH 4.0 | tendency to adsorb onto glass [3]: does not have a tendency to adsorb onto the glass

— patent publication US7312196B2, “Formulations for amylin agonist peptides” (Amylin Pharmaceuticals, Inc., priority 1998, dated 2007)
